This is an account of results in patent US5571808A, “Method for treating smoking-related bone loss” (Eli Lilly and Company, priority 1995, dated 1996).

Data set [1] deals with ovariectomized (ovex) rats. Briefly: Femur bone density in ovariectomized rats (model of post-menopausal osteoporosis). It is filed as in vivo, Sprague Dawley rats. Conditions: for Prevention of bone loss (in words): oral, femur density; for inhibition in vivo at 1 mg/kg: Rattus norvegicus, 840 h, 1 mg/kg oral, relative to estrogen treated and untreated ovex animals, read-out: % Inhibition of Bone Loss. The method, then: A model of post-menopausal osteoporosis was used in which effects of different treatments upon femur density were determined. Seventy-five day old female Sprague Dawley rats (weight range of 225 g to 275 g) were obtained from Charles River Laboratories (Portage, Mich.). They were housed in groups of 3 and had ad libitum access to food (calcium content approximately 1%) and water. Room temperature was maintained at 22.2°±1.7° C. with a minimum relative humidity of 40%. The photoperiod in the room was 12 hours light and 12 hours dark.
The right femurs were excised and scanned at the distal metaphysis 1 mm from the patellar groove with single photon absorptiometry. Results of the densitometer measurements represent a calculation of bone density as a function of the bone mineral content and bone width.
Results are reported as the mean of measurements from thirty rats ± the standard error of the mean.
Accordingly, each point reflects the responses of thirty rats and depicts a typical dose response curve for raloxifene in this model. Results are reported as the mean ± the standard error of the mean.
Other compounds of formula I were administered orally in the rat assay described in Example 1.

Data set [2] concerns bone loss in postmenopausal women. Conditions: cited from earlier work.

Regarding `C#C[C@]1(O)CC[C@H]2[C@@H]3CCc4cc(O)ccc4[C@H]3CC[C@@]21C` [EE2, ethynyl estradiol], the “Prevention of bone loss (in words)” value in data set [1] was “prevented this loss of bone in a dose dependent manner”.

As to `O=C(c1ccc(OCCN2CCCC2)cc1)c1c(-c2ccc(O)cc2)sc2cc(O)ccc12` [Compound 16], the inhibition in vivo at 1 mg/kg in data set [1] is 25%.

Turning to `O=C(c1ccc(OCCN2CCCCC2)cc1)c1c(-c2ccc(O)cc2)sc2cc(O)ccc12` [raloxifene, 6-hydroxy-2-(4-hydroxyphenyl)-3-[4-(2-piperidinoethoxy)benzoyl]benzo[b]thiophene], the “Prevention of bone loss (in words)” value in data set [1] was “prevented bone loss in a dose dependent manner”.

Regarding estrogen, the “Disorders implicated in long-term estrogen therapy (in words)” value in data set [2] (long-term therapy, postmenopausal women) was “increased risk of uterine and breast cancer”. The “Protective effects of estrogen therapy on bone (in words)” value in data set [2] (women smokers (Kiel et al.)) was “eliminated for women smokers”.

Consider `O=C(Oc1ccc(-c2sc3cc(OC(=O)c4ccccc4)ccc3c2C(=O)c2ccc(OCCN3CCCCC3)cc2)cc1)c1ccccc1` [Compound 12], for which the inhibition in vivo at 1 mg/kg in data set [1] came to 60%.

Consider `COc1ccc(-c2sc3cc(OC)ccc3c2C(=O)c2ccc(OCCN3CCCCC3)cc2)cc1` [Compound 18], for which the inhibition in vivo at 1 mg/kg in data set [1] was 26%.
